Consider three molecules from US5750362A, “Methods for identifying substances with a potential herbicidal or growth-regulating action by means of plant transporter proteins, the use of the transporter proteins, and substances with a herbicidal and growth-regulating action” (BASF Aktiengesellschaft, priority 1993, dated 1998).

Where only a bound is given, the exact number is not on record here.

For one data set, the system named is sucrose transporters. As to conditions: Bush, 1989, Plant Physiol. 89: 1318-1323; result in words; cited from earlier work.
Data set [1] addresses T1, sucrose transporter P62 (StSUT1) (Solanum tuberosum, UniProt Q43653).
T1 construct: whole-cell [14C]-sucrose uptake; no tag or borders given
T1 sequence (Q43653 1-516): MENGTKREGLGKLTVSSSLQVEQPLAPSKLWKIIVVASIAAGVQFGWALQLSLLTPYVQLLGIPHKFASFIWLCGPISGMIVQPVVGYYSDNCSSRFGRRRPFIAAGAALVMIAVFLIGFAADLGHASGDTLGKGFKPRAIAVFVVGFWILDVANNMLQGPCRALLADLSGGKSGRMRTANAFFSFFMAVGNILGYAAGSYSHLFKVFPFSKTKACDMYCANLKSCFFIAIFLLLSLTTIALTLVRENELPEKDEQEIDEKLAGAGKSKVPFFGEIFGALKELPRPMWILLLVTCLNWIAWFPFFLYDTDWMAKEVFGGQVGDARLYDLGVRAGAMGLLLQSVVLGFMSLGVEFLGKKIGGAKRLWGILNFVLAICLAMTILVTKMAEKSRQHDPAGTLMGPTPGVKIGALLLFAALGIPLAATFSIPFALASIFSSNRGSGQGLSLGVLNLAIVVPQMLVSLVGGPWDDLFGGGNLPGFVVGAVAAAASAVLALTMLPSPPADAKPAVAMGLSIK
In words: [14C]-sucrose uptake by yeast strain SUSY-7-P62 (StSUT1) expressing the potato sucrose transporter. The class given is cell-based. As to conditions: [14C]-sucrose uptake, pH 3.8; tested substance 0.1 mM. From the text: Yeast cells of the strain SUSY7 (Riesmeier et al., 1992, EMBO J. 11: 4705-4713) are used to identify substances which have an inhibitory effect on sucrose transporters from potato. Cells of this strain are transformed with a cDNA sequence which codes for the sucrose transporter P62 (StSUT1) from potato (WO 94/00574, Riesmeier et al., 1993, Plant Cell 5:1591-1598) and which ensures expression of a functional transporter in the cells. The resulting yeast strain was called SUSY-7-P62 (StSUT1). The yeast cells are cultured in minimal medium (SD +2% (w/v) sucrose, pH 3.8) at 28° C. and harvested in the logarithmic phase (OD600 =0.6). The cells are spun down at 4000 rpm for 10 minutes and washed twice with SD medium. A cell concentration of c=50 g/l in SD medium is adjusted according to the wet weight of the cells, and 200 Al aliquot fractions are taken. Before the actual reaction, the cells are incubated in 10 mM glucose for 5 min and adjusted to pH 3.8 with MES buffer. The reaction is started by adding 200 Al of a 0.2 mmol/l [14C]-sucrose solution (3 mCi/mmol) in SD medium (pH 3.8). After 20, 60, 120, 180 and 240 seconds, 70 μl portions of the suspension are removed and pipetted into 4 ml of ice-cold water in order to stop the reaction. The cells are filtered off on glass fiber filters and washed twice with ice-cold water. The radioactivity on the filters is subsequently determined in a liquid scintillation counter. The substances to be tested are added 30 seconds before addition of the sucrose. The uptake of radiolabeled sucrose without addition of a potential inhibitor is determined as one control. Cells of the strain SUSY7 which are not transformed with cDNA sequences coding for a sucrose transporter from potato are employed as further control.
The various tested substances, their concentration and the activity of the transporter, shown as percentage activity of the control in which no potential inhibitors were added, are indicated.

The target in data set [2] is T2, sucrose transporter S21 (SoSUT1) (Spinacia oleracea, UniProt Q03411).
T2 construct: expressed in transfected cells; host or cells: Saccharomyces cerevisiae SUSY7
T2 sequence (Q03411 1-525): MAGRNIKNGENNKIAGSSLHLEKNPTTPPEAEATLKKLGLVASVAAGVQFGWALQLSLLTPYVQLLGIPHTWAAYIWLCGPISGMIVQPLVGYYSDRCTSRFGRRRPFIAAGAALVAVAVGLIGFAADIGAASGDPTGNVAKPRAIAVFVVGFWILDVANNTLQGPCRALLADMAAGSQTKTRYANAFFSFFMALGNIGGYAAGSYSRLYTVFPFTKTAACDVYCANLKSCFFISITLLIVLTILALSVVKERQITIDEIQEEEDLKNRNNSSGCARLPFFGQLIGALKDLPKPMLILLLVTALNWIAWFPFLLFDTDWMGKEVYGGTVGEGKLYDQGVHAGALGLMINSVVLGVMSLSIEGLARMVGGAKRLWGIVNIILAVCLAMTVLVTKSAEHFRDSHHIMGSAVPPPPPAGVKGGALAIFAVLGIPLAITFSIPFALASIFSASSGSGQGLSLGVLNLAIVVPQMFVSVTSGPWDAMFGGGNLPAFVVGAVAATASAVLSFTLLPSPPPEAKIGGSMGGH
In words: [14C]-sucrose uptake by yeast strain SUSY7 expressing the spinach sucrose transporter. The class given is cell-based. As to conditions: [14C]-sucrose uptake, pH 3.8; tested substance 0.1 mM. Here is the method: Yeast cells of the strain SUSY7 (Riesmeier et al., 1992, EMBO J. 11: 4705-4713) are used to identify substances which have an inhibitory effect on sucrose transporters from spinach. Cells of this strain are transformed with a cDNA sequence which codes for the sucrose transporter S21 (SoSUT1) from spinach and which ensures expression of a functional transporter in the cells. The yeast cells are cultured in minimal medium (SD+2% (w/v) sucrose, pH 3.8) at 28° C. and harvested in the logarithmic phase (OD600 =0.6). The cells are spun down at 4000 rpm for 10 minutes and washed twice with SD medium. A cell concentration of c=50 g/l in SD medium is adjusted according to the wet weight of the cells, and 200 μl aliquot fractions are taken. Before the actual reaction, the cells are incubated in 10 mM glucose for 5 min and adjusted to pH 3.8 with MES buffer. The reaction is started by adding 200 μl of a 0.2 mmol/l [14C]-sucrose solution (3 mCi/mmol) in SD medium (pH 3.8). After 20, 60, 120, 180 and 240 seconds, 70 μl portions of the suspension are removed and pipetted into 4 ml of ice-cold water in order to stop the reaction. The cells are filtered off on glass fiber filters and washed twice with ice-cold water. The radioactivity on the filters is subsequently determined in a liquid scintillation counter. The substances to be tested are added 30 seconds before addition of the sucrose. The uptake of radiolabeled sucrose without addition of a potential inhibitor is determined as one control. Cells of the strain SUSY7 which are not transformed with cDNA sequences coding for a sucrose transporter from spinach are employed as further control.
The various tested substances, their concentration and the activity of the transporter, shown as percentage activity of the control in which no potential inhibitors were added, are indicated. Substances which specifically show an inhibitory effect on the sucrose transporter S21 (SoSUT1), are tested for their herbicidal and growth-regulating effect on whole plants.

In a further data set the test system is plants. In words: Herbicidal activity on plants. The data set is classed as in vivo. As to conditions: whole plants; result in words.
The target of data set [3] is T3, ammonium transporter AMT1 (Arabidopsis thaliana, UniProt P54144).
T3 construct: expressed in transfected cells; host or cells: Saccharomyces cerevisiae 26972c (mutations in MEP1 and MEP2)
T3 sequence (P54144 1-501): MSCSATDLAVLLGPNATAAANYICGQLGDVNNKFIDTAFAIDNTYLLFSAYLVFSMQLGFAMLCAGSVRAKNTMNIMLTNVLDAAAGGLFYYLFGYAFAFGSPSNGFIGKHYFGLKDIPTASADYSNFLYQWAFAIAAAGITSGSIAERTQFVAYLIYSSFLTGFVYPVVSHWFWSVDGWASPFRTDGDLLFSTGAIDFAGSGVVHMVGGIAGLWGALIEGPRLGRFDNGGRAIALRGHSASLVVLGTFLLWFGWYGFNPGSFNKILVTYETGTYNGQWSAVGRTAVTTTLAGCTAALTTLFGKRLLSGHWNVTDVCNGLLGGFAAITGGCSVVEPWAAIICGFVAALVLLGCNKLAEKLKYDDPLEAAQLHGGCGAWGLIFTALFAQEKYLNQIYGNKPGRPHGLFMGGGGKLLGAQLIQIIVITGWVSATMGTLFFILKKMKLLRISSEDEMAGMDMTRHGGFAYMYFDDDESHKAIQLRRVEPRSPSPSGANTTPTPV
In words: Substrate specificity, Km and Ki determination of the ammonium transporter in yeast strain 26972c. The data set is classed as cell-based. As to conditions: inhibition of methylamine transport by various concentrations of ammonium; read-out: Ki (inhibitor constant). Here is the method:
The investigations of the substrate specificity and the Km determinations are carried out with the yeast strain .music-natural. 26972c (Dubois & Grenson, Mol. Gen. Genet. 175: 67-76, 1979) which expresses the plant ammonium transporter AMT1. The method for this is as in Example 6, except for the fact that the methylamine substrate concentration is varied. […] To determine the affinity of the transport system for ammonium, the inhibition of methylamine transport by various concentration [sic] of ammonium is determined (inhibitor constant, Ki)

Substrate in data set [4]: OC[C@H]1O[C@H](O[C@H]2[C@H](O)[C@@H](O)[C@H](O)O[C@@H]2CO)[C@H](O)[C@@H](O)[C@@H]1O
In words: Substrate specificity and Km determination of the sucrose transporter in yeast strain SUSY7-pP62. As to conditions: other: substrate of the sucrose transporter; substrate concentration varied, no inhibitors. The class given is cell-based, Solanum tuberosum. Here is the method: (§1) The investigations of the substrate specificity and the Km determination are carried out in the yeast strain SUSY7-pP62 (StSUT1) (Riesmeier et al., 1993, Plant Cell 5:1591-1598), which expresses the sucrose transporter from Solanum tuberosum. This entails carrying out the method of Example 3 apart from the fact that the substrate concentration is changed and no potential inhibitors are added. […]

Substrate in data set [5]: OC[C@H]1O[C@@](CO)(O[C@H]2O[C@H](CO)[C@@H](O)[C@H](O)[C@H]2O)[C@@H](O)[C@@H]1O
Described as above. The class given is cell-based, Solanum tuberosum. As to conditions: other: substrate of the sucrose transporter; substrate concentration varied, no inhibitors. Here is the method: as §1

With `O=S(=O)(O)c1cc[c]([Hg][Cl])cc1` [PCMBS], the “Inhibition of sucrose transport” value in the data set with sucrose transporters is “highly effective transport inhibitors”. Besides, the “Activity relative to the control [%]” value in data set [1] is on record as 20%; in data set [2], 21%. Besides, in the data set on plants, the “Herbicidal activity on plants” value is “herbicidal activity on plants”.

As to `N` [ammonium], the inhibition constant Ki in data set [3] was < 10 µM.

B1: sucrose transporter P62 (StSUT1) (Solanum tuberosum) (protein)
chain: T1 sequence (Q43653 1-516)
notes: whole-cell [14C]-sucrose uptake; no tag or borders given
For B1, the Michaelis constant (Km) in data set [4] is given as 10 mM; in data set [5] it was 1 mM.

In general, Ki refers to the equilibrium dissociation constant of an inhibitor or competing ligand from its target. As a reminder, the Km is the substrate concentration at which the rate is half of its maximum.
